Assay: Dissolution test in physiological saline (Test Example 1, FIG. 11)
Assay type: physicochemical
Conditions: 6 mg/mL as nintedanib in 100 mL physiological saline, 20° C., stirring
Protocol: The pharmaceutical composition (i) or the nintedanib ethanesulfonate (obtained from LC laboratories) was added to 100 mL of physiological saline so that the amount of nintedanib would be 6 mg/mL. The resultant mixture was subjected to a dissolution test at a liquid temperature of 20° C. under stirring with a stirrer.
FIG. 11 is a graph presenting the concentrations of nintedanib in the solutions measured over time.

COC(=O)c1ccc2c(c1)NC(=O)/C2=C(\Nc1ccc(N(C)C(=O)CN2CCN(C)CC2)cc1)c1ccccc1 [nintedanib ethanesulfonate, Nintedanib ethanesulfonate]
course of solubility (concentration of nintedanib in solution) over time: solubility decreased over time and sedimentation of insoluble matter was observed

— US20220110934A1, “PHARMACEUTICAL COMPOSITION” (Ricoh Company, Ltd., priority 2019, published 2022)
